The text below walks through data of ChEMBL document CHEMBL3217738, “Preparation of blood-brain barrier-permeable paclitaxel-carrier conjugate and its chemotherapeutic activity in the mouse glioblastoma model” (Medchemcomm, 2011).

Calls of active or inactive are those of the source. The rule behind the calls is not given here.

In data set [1] the test system is RAW264.7. Nature of the data set: Cytotoxicity against mouse RAW264.7 cells assessed as cell viability at 10 uM after 48 hrs by MTT assay relative to control. The conditions noted are these: RAW264.7, 48 h, read-out: Activity. Format: functional.
For data set [2], the system named is HeLa. Nature of the data set: Cytotoxicity against human HeLa cells assessed as cell viability at 0.1 uM after 48 hrs by MTT assay relative to control. The format is functional. The following applies: read-out: Activity. (Formazan colour is commonly taken as a measure of viable cells.)
Data set [3] has as its system RAW264.7. Nature of the data set: Cytotoxicity against mouse RAW264.7 cells assessed as cell viability at 100 uM after 48 hrs by MTT assay relative to control. The following applies: RAW264.7, 48 h, read-out: Activity. Format: functional.
The nature of data set [4]: Cytotoxicity against African green monkey COS7 cells assessed as cell viability at 10 uM after 48 hrs by MTT assay relative to control. The format is cell-based, COS-7. The following applies: chlorocebus aethiops, read-out: Activity.
Data set [5] has as its system RAW264.7. Nature of the data set: Cytotoxicity against mouse RAW264.7 cells assessed as cell viability at 1 uM after 48 hrs by MTT assay relative to control. The format is functional. The following applies: RAW264.7, 48 h, read-out: Activity.
The nature of data set [6]: Cytotoxicity against African green monkey COS7 cells assessed as cell viability at 1 uM after 48 hrs by MTT assay relative to control. Format: cell-based, COS-7. The conditions noted are these: chlorocebus aethiops, read-out: Activity.
The nature of data set [7]: Cytotoxicity against African green monkey COS7 cells assessed as cell viability at 0.1 uM after 48 hrs by MTT assay relative to control. The format is cell-based, COS-7. The following applies: chlorocebus aethiops, read-out: Activity.
The test system of data set [8] is U-87MG ATCC. Nature of the data set: Antitumor activity against human U87MG cells xenografted in mouse assessed as tumor growth inhibition by measuring PCNA-positive cells at […] 7.5 mg/kg, po administered twice per week for 2 weeks measured after 4 weeks by immunohistochemical analysis relative to control. Format: functional, organism-based. (In general: A xenograft is tissue or cells of one species grown in another, often human tumour cells in immunodeficient mice.)

Data set [9] concerns HeLa. Nature of the data set: Cytotoxicity against human HeLa cells assessed as cell viability at 10 uM after 48 hrs by MTT assay relative to control. The format is functional. The conditions noted are these: read-out: Activity.
The test system of data set [10] is U-87MG ATCC. Nature of the data set: Antitumor activity against human U87MG cells xenografted in mouse assessed as decrease in microvessel density in tumor bed by measuring CD31-positive cells at […] 7.5 mg/kg, po administered twice per week for 2 weeks measured after 4 weeks by immunohistochemical analysis relative to control. The format is functional, organism-based.

Data set [11] can be described thus: Antitumor activity against human U87MG cells xenografted in Balb/c nude mouse assessed as reduction in tumor volume at 7.5 mg/kg, po administered twice per week for 2 weeks measured after 4 weeks (reference value: 25 +/- 2.6 mm3). Format: functional, U-87MG ATCC.
Data set [12] has as its system HeLa. Nature of the data set: Cytotoxicity against human HeLa cells assessed as cell viability at 1 uM after 48 hrs by MTT assay relative to control. Format: functional. The conditions noted are these: read-out: Activity.
A short description of data set [13]: Cytotoxicity against African green monkey COS7 cells assessed as cell viability at 100 uM after 48 hrs by MTT assay relative to control. Format: cell-based, COS-7. The conditions noted are these: chlorocebus aethiops, read-out: Activity.
Data set [14] has as its system HeLa. Nature of the data set: Cytotoxicity against human HeLa cells assessed as cell viability at 100 uM after 48 hrs by MTT assay relative to control. The format is functional. The following applies: read-out: Activity.
For a further data set, the system named is U-87 MG. Nature of the data set: Induction of apoptosis in human U87MG cells xenografted in mouse at 3.75 to 7.5 mg/kg, po administered twice per week for 2 weeks measured after 4 weeks by TUNEL-staining based immunohistochemical analysis relative to control. Format: functional, organism-based. The conditions noted are these: U-87MG ATCC.
Data set [15] relates to RAW264.7. Nature of the data set: Cytotoxicity against mouse RAW264.7 cells assessed as cell viability at 0.1 uM after 48 hrs by MTT assay relative to control. The format is functional. The following applies: RAW264.7, 48 h, read-out: Activity.
Data set [16] in a line: Antitumor activity against human U87MG cells xenografted in Balb/c nude mouse orthotopic model assessed as reduction in tumor volume at 3.75 mg/kg, po administered twice per week for 2 weeks measured after 4 weeks (reference value: 25 +/- 2.6 mm3). The format is functional, U-87MG ATCC.
The subject of the next data set is Lung. Nature of the data set: Drug uptake in lung of C57BL/6 mouse at 115.6 mg/kg, ip after 20 mins by fluorescence microscopy. The following applies: in vivo. The format is ADME, organism-based. More on the design: dose 115.6 mg/kg, route intraperitoneal.
A further data set deals with Spleen. Nature of the data set: Drug uptake in spleen of C57BL/6 mouse at 115.6 mg/kg, ip after 20 mins by fluorescence microscopy. Format: ADME, organism-based. More on the design: dose 115.6 mg/kg, route intraperitoneal. The conditions noted are these: in vivo.
Another data set deals with Kidney. Nature of the data set: Drug uptake in kidney of C57BL/6 mouse at 115.6 mg/kg, ip after 20 mins by fluorescence microscopy. Format: ADME, organism-based. More on the design: dose 115.6 mg/kg, route intraperitoneal. The following applies: in vivo.
The test system of the next data set is Liver. Nature of the data set: Drug uptake in liver of C57BL/6 mouse at 115.6 mg/kg, ip after 20 mins by fluorescence microscopy. The format is ADME, organism-based. Also on record: dose 115.6 mg/kg, route intraperitoneal. The following applies: in vivo.
The next data set deals with Brain. Nature of the data set: Drug uptake in brain of C57BL/6 mouse at 115.6 mg/kg, ip after 20 mins by fluorescence microscopy. The format is ADME, organism-based. Also on record: dose 115.6 mg/kg, route intraperitoneal. The following applies: in vivo.
A further data set has as its system Heart. Nature of the data set: Drug uptake in heart muscle of C57BL/6 mouse at 115.6 mg/kg, ip after 20 mins by fluorescence microscopy. Also on record: dose 115.6 mg/kg, route intraperitoneal. Format: ADME, organism-based, Muscle tissue. The conditions noted are these: in vivo.

Consider `CC(=O)O[C@H]1C(=O)[C@@]2(C)[C@H]([C@H](OC(=O)c3ccccc3)[C@]3(O)C[C@H](OC(=O)[C@H](OC(=O)CCC(=O)OC[C@@H](OC(=O)CCCCCN(CCCNC(=N)N)CCCNC(=N)N)[C@@H](OC(=O)CCCCCN(CCCNC(=N)N)CCCNC(=N)N)[C@H](OC(=O)CCCCCN(CCCNC(=N)N)CCCNC(=N)N)[C@H](CO)OC(=O)CCCCCN(CCCNC(=N)N)CCCNC(=N)N)[C@@H](NC(=O)c4ccccc4)c4ccccc4)C(C)=C1C3(C)C)[C@]1(OC(C)=O)CO[C@@H]1C[C@@H]2O.Cl`, for which the viability at 10 µM was 53.4% with RAW264.7 [1] and 83.1% in the data set with HeLa [9]. Further, the viability at 0.1 µM in the data set on HeLa [2] was 87.4%; with RAW264.7 [15], 117%. The results for the viability at 100 µM in the data set with RAW264.7 [3] and with HeLa [14] were 2.6% and 3.8%, respectively. The viability at 48 h, 10 µM in [4] amounted to 94.5%. Moreover, the viability at 1 µM in the data set with RAW264.7 [5] was determined as 111%; in the data set with HeLa [12] it was 78%. Further, the viability at 48 h, 1 µM in data set [6] came to 92.4%. In addition, the viability at 48 h, 0.1 µM in [7] came to 96.2%. The TGI entry in the data set with U-87MG ATCC [8] is “Active”. Also, the outcome with U-87MG ATCC [10] and in the data set with U-87 MG was Active. The Activity in [11] is reported as 4.7 mm3; in data set [16], 6.1 mm3. Besides, the viability at 48 h, 100 µM in data set [13] is 20.6%.

Turning to `CC(=O)O[C@H]1C(=O)[C@@]2(C)[C@H]([C@H](OC(=O)c3ccccc3)[C@]3(O)C[C@H](OC(=O)[C@H](O)[C@@H](NC(=O)c4ccccc4)c4ccccc4)C(C)=C1C3(C)C)[C@]1(OC(C)=O)CO[C@@H]1C[C@@H]2O` [PACLITAXEL], the viability at 10 µM in the data set with RAW264.7 [1] was determined as 49.9%; in the data set on HeLa [9], 96.1%. Further, the viability at 0.1 µM in the data set on HeLa [2] was 76.3%; in the data set on RAW264.7 [15] it was 39.3%. The viability at 100 µM with RAW264.7 [3] amounted to 13.3%; in the data set on HeLa [14], 56.5%. The viability at 48 h, 10 µM in data set [4] was found to be 71.9%. Besides, the figures for the viability at 1 µM in the data set with RAW264.7 [5] and with HeLa [12] were 39.2% and 86.3%, respectively. In addition, the viability at 48 h, 1 µM in [6] came to 66.5%. The viability at 48 h, 0.1 µM in [7] stood at 65.4%. Moreover, the Activity in data set [11] is reported as 19.4 mm3. Further, the viability at 48 h, 100 µM in data set [13] is 41.5%.

As for `CC(=O)O[C@H]1C(=O)[C@@]2(C)[C@H]([C@H](OC(=O)c3ccccc3)[C@]3(O)C[C@H](OC(=O)[C@H](OC(=O)CCC(=O)OC[C@H](OC(=O)CCCCCN(CCCNC(=N)N)CCCNC(=N)N)[C@@H](OC(=O)CCCCCN(CCCNC(=N)N)CCCNC(=N)N)[C@H](OC(=O)CCCCCN(CCCNC(=N)N)CCCNC(=N)N)[C@@H](COC(=O)CCCCCNC(=S)Nc4ccc(-c5c6ccc(=O)cc-6oc6cc(O)ccc56)c(C(=O)O)c4)OC(=O)CCCCCN(CCCNC(=N)N)CCCNC(=N)N)[C@@H](NC(=O)c4ccccc4)c4ccccc4)C(C)=C1C3(C)C)[C@]1(OC(C)=O)CO[C@@H]1C[C@@H]2O.Cl`, the Drug uptake entry with Lung, with Spleen, in the data set with Kidney, with Liver, with Brain and in the data set with Heart was “Active” throughout.
